The results in this text go back to patent publication US11091471B2, “Isoxazolyl ether derivatives as GABAA α5 PAM” (Hoffmann-La Roche Inc., priority 2016, dated 2021).

In this test the target is h-GABA-A α5β3γ2 (Homo sapiens (Human), UniProt P18507+P31644). Briefly: Two-electrode voltage clamp electrophysiology in Xenopus oocytes expressing GABAA receptors, modulation of GABA EC20 current. It counts as cell-based. The procedure:
Xenopus laevis oocytes at maturation stages V-VI were used for the expression of cloned mRNA encoding GABAA receptor subunits. Oocytes ready for RNA micro-injection were bought from Ecocyte, Castrop-Rauxel, Germany and stored in modified Barth's medium (composition in mM: NaCl 88, KCl 1, NaHCO3 2.4, HEPES 10, MgSO4 0.82, CaNO3 0.33, CaCl2 0.33, pH=7.5) at 20° C. until the experiment.
Oocytes were plated in 96-well plates to be used in an automated instrument (Robo-ocyte, MultiChannelSystems, Reutlingen, Germany) for microinjection and electrophysiological recordings. Approximately 50 nl of an aqueous solution containing the RNA transcripts for the subunits of the desired GABAA receptor was injected into each oocyte.
Electrophysiological experiments were performed on days 3 to 5 after the micro-injection of mRNA. During the experiment the oocytes were constantly superfused by a solution containing (in mM) NaCl 90, KCl 1, HEPES 5, MgCl2 1, CaCl2 1 (pH 7.4). Oocytes were impaled by two glass microelectrodes (resistance: 0.4 MΩ) which were filled with a solution containing KCl 1M+K-acetate 1.5 M and voltage-clamped to −80 mV. The recordings were performed at room temperature using the Roboocyte two-electrode voltage clamp system (Multichannelsystem). After an initial equilibration period of 1.5 min GABA was added for 1.5 min at a concentration evoking approximately 20% of a maximal current response (EC20). After another rest interval of 2.5 min GABA was again added evoking a response of similar amplitude and shape. […] Current traces were recorded at a digitization rate of 10 Hz during and shortly before and after the GABA application.
Each compound and concentration was tested on at least 3 oocytes.
For the analysis, the digitized current traces of the first and second GABA response were superimposed and, if necessary, rescaled to equal maximal amplitudes. The ratio between the two responses during the time interval of test compound application was calculated point by point. The extremum of the resulting “ratio trace” was taken as the efficacy (“Fold increase”) of the compound expressed as “% modulation of GABA EC20” (100*(Fold increase−1)).

Where [1] appears, read: Table 1, GABA at EC20, test compound at approx. 30 fold its Ki, Xenopus oocytes.
The mark [2] stands for this setting: Table 1, % modulation of GABA EC20 = 100*(Fold increase−1).
[3] abbreviates: Table 2, reference compounds, % modulation of GABA EC20.
The mark [4] stands for this setting: Table 2, reference compounds, GABAA α5β3γ2 overexpressing oocytes.

Chain of h-GABA-A α5β3γ2 (P31644 32-462): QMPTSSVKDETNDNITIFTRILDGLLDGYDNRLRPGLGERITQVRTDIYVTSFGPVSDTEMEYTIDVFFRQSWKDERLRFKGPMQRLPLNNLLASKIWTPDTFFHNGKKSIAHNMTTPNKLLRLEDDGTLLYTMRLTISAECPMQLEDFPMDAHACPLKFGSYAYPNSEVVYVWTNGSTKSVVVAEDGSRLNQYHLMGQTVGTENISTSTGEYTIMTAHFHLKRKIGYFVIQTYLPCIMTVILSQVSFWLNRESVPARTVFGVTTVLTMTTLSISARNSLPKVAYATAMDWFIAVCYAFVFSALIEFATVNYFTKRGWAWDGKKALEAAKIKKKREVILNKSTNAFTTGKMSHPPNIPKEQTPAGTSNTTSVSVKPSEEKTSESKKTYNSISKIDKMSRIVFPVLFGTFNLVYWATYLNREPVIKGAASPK
Chain of h-GABA-A α5β3γ2 (P28472 26-473 partner): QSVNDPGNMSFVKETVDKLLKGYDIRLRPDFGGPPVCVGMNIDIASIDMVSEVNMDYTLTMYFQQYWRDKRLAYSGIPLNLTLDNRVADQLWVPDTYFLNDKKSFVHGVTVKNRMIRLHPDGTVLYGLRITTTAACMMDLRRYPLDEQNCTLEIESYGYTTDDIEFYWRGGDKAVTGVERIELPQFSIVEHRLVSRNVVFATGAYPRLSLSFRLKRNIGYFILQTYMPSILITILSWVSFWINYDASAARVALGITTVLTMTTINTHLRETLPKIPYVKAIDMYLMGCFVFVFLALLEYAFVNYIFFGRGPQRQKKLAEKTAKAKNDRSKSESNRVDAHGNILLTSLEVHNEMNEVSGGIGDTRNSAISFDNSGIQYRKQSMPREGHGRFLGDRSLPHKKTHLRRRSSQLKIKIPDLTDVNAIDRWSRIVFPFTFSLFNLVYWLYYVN
Chain of h-GABA-A α5β3γ2 (P18507 40-475): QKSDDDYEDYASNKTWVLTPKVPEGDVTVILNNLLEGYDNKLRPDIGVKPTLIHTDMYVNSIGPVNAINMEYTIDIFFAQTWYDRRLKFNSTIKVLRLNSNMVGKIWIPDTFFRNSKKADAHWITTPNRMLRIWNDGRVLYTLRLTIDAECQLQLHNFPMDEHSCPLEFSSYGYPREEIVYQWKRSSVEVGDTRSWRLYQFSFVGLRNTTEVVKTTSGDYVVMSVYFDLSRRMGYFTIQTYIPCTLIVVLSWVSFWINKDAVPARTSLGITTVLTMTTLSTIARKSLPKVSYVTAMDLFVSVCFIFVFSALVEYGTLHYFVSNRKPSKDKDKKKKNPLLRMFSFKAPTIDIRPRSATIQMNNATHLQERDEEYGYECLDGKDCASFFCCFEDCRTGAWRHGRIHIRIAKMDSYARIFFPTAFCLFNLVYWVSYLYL

Regarding `CCC[C@@H](CO)NC(=O)c1ccc(OCc2c(-c3ccc(C)nc3)noc2C)nc1` [Example 4, (S)—N-(1-hydroxypentan-2-yl)-6-((5-methyl-3-(6-methylpyridin-3-yl)isoxazol-4-yl)methoxy)nicotinamide], the “Fold increase h-GABA-A α5β3γ2 oocyte” value under setting [1] is given as 2.5.
Still for that read-out and setting: the same measure for `Cc1ccc(-c2noc(C)c2COc2cc3c(cn2)C(=O)N(C)C3)cn1` [Example 10, 2-methyl-6-((5-methyl-3-(6-methylpyridin-3-yl)isoxazol-4-yl)methoxy)-1H-pyrrolo[3,4-c]pyridin-3(2H)-one]: 1.8; for `CCC[C@@H](CO)NC(=O)c1cnc(OCc2c(-c3ccc(C)nc3)noc2C)cn1` [Example 14, N-((1S)-1-(hydroxymethyl)butyl)-5-((5-methyl-3-(6-methyl-3-pyridyl)isoxazol-4-yl)methoxy)pyrazine-2-carboxamide]: 2.6; for `Cc1ccc(-c2noc(C)c2COc2ccc(C(N)=O)cn2)cn1` [Example 17, 6-((5-methyl-3-(6-methylpyridin-3-yl)isoxazol-4-yl)methoxy)nicotinamide]: 1.6.
As to `Cc1ccc(-c2noc(C)c2COc2ccc(C(=O)NC3CC3)nn2)cn1` [Example 26, N-cyclopropyl-6-((5-methyl-3-(6-methylpyridin-3-yl)isoxazol-4-yl)methoxy)pyridazine-3-carboxamide], the “Fold increase h-GABA-A α5β3γ2 oocyte” value under setting [1] is 1.8.
With `Cc1ccc(-c2noc(C)c2COc2ccc(C(=O)NCC3(C)COC3)nn2)cn1` [Example 49, 6-((5-methyl-3-(6-methylpyridin-3-yl)isoxazol-4-yl)methoxy)-N-((3-methyloxetan-3-yl)methyl)pyridazine-3-carboxamide], the “Fold increase h-GABA-A α5β3γ2 oocyte” value under setting [1] is reported as 1.7.
Regarding `Cc1ccc(-c2noc(C)c2COc2ccc(C(=O)N3CCC(F)(F)CC3)nn2)cn1` [Example 53, (4,4-difluoropiperidin-1-yl)(6-((5-methyl-3-(6-methylpyridin-3-yl)isoxazol-4-yl)methoxy)pyridazin-3-yl)methanone], the “Fold increase h-GABA-A α5β3γ2 oocyte” value under setting [1] came out at 1.8.
For `Cc1ccc(-c2noc(C)c2COc2cnc(C(=O)NC3CCS(=O)(=O)CC3)cn2)cn1` [Example 72, N-(1,1-dioxothian-4-yl)-5-((5-methyl-3-(6-methyl-3-pyridyl)isoxazol-4-yl)methoxy)pyrazine-2-carboxamide], the “Fold increase h-GABA-A α5β3γ2 oocyte” value under setting [1] came out at 2.3.
Take `Cc1ccc(-c2noc(C)c2COc2cnc(C(=O)NC3COC3)cn2)cn1` [Example 77, 5-((5-methyl-3-(6-methyl-3-pyridyl)isoxazol-4-yl)methoxy)-N-(oxetan-3-yl)pyrazine-2-carboxamide]: the “Efficacy (GABA) %” value under setting [2] was 11%.
`Cc1ccc(-c2noc(C)c2COc2ccc(C(=O)N[C@@]3(C)CCOC3)nn2)cn1` [Example 81, (S)-6-((5-methyl-3-(6-methylpyridin-3-yl)isoxazol-4-yl)methoxy)-N-(3-methyltetrahydrofuran-3-yl)pyridazine-3-carboxamide]: the “Fold increase h-GABA-A α5β3γ2 oocyte” value under setting [1] turned out to be 1.8.
Still for that read-out and setting: the same measure for `Cc1ccc(-c2noc(C)c2COc2cnc(C(=O)NC3CCC(F)(F)CC3)cn2)cn1` [Example 86, N-(4,4-difluorocyclohexyl)-5-((5-methyl-3-(6-methyl-3-pyridyl)isoxazol-4-yl)methoxy)pyrazine-2-carboxamide]: 2.2; for `Cc1ccc(-c2noc(C)c2COc2ccc(C(=O)N[C@H]3CCOC3)nn2)cn1` [Example 87, (S)-6-((5-methyl-3-(6-methylpyridin-3-yl)isoxazol-4-yl)methoxy)-N-(tetrahydrofuran-3-yl)pyridazine-3-carboxamide]: 1.8; for `Cc1ccc(-c2noc(C)c2COc2cc3c(cn2)C(=O)N(C2CCS(=O)(=O)CC2)C3)cn1` [Example 91, 2-(1,1-dioxothian-4-yl)-6-((5-methyl-3-(6-methylpyridin-3-yl)-1,2-oxazol-4-yl)methoxy)-1H-pyrrolo[3,4-c]pyridin-3-one]: 2.4.
As for `Cc1ccc(-c2noc(C)c2COc2ccc(C(=O)NC3CC4(COC4)C3)nn2)cn1` [Example 100, 6-((5-methyl-3-(6-methylpyridin-3-yl)isoxazol-4-yl)methoxy)-N-(2-oxaspiro[3.3]heptan-6-yl)pyridazine-3-carboxamide], the “Fold increase h-GABA-A α5β3γ2 oocyte” value under setting [1] is 1.7.
Consider `Cc1ccc(-c2noc(C)c2COc2ccc(C(=O)N[C@H]3CCCOC3)nn2)cn1` [Example 103, (S)-6-((5-methyl-3-(6-methylpyridin-3-yl)isoxazol-4-yl)methoxy)-N-(tetrahydropyran-3-yl)pyridazine-3-carboxamide], for which the “Efficacy (GABA) %” value under setting [2] was found to be 81%.
For the molecule `Cc1ccc(-c2noc(C)c2COc2ccc(C(=O)NC3CCOCC3)cn2)nn1` [Example 108, 6-((5-methyl-3-(6-methylpyridazin-3-yl)isoxazol-4-yl)methoxy)-N-tetrahydropyran-4-yl-pyridine-3-carboxamide], under setting [1], the “Fold increase h-GABA-A α5β3γ2 oocyte” value was 1.2.
As to `CCc1onc(-c2ccc(C)nc2)c1COc1ccc(C(=O)NC2CCS(=O)(=O)CC2)cn1` [Example 120, N-(1,1-dioxidotetrahydro-2H-thiopyran-4-yl)-6-((5-ethyl-3-(6-methylpyridin-3-yl)isoxazol-4-yl)methoxy)pyridine-3-carboxamide], the “Fold increase h-GABA-A α5β3γ2 oocyte” value under setting [1] is reported as 2.6.
With `Cc1ccc(-c2noc(C)c2COc2ccc(C(=O)N[C@H]3CCOC[C@@H]3O)cn2)cn1` [Example 127, N-((3R,4S)-3-hydroxytetrahydropyran-4-yl)-6-((5-methyl-3-(6-methyl-3-pyridyl)isoxazol-4-yl)methoxy)pyridine-3-carboxamide], under setting [1], the “Fold increase h-GABA-A α5β3γ2 oocyte” value is 1.5.
Turning to `Cc1ncc(-c2noc(C)c2COc2ccc(C(=O)NC3CCOCC3)cn2)cc1F` [Example 143, 6-((3-(5-fluoro-6-methyl-3-pyridyl)-5-methyl-isoxazol-4-yl)methoxy)-N-tetrahydropyran-4-yl-pyridine-3-carboxamide], under setting [1], the “Fold increase h-GABA-A α5β3γ2 oocyte” value worked out at 1.2.
In the case of `Cc1ccc(-c2noc(C)c2COc2ccc(C(=O)N3C4COCC3C4)nn2)cn1` [Example 157, 3-oxa-6-azabicyclo[3.1.1]heptan-6-yl(6-((5-methyl-3-(6-methylpyridin-3-yl)isoxazol-4-yl)methoxy)pyridazin-3-yl)methanone], the “Efficacy (GABA) %” value under setting [2] is 76%.
Take `Cc1onc(-c2ccc(Cl)nc2)c1COc1ccc(C(=O)NC2(C)COC2)nn1` [Example 161, 6-((3-(6-chloropyridin-3-yl)-5-methylisoxazol-4-yl)methoxy)-N-(3-methyloxetan-3-yl)pyridazine-3-carboxamide]: under setting [1], the “Fold increase h-GABA-A α5β3γ2 oocyte” value is on record as 1.6.
In the case of `Cc1ccc(-c2noc(C)c2COc2ccc(C(=O)N[C@H]3C[C@H](OCC(F)F)C3)nn2)cn1` [Example 170, trans-N-3-((2,2-difluoroethoxy)cyclobutyl)-6-((5-methyl-3-(6-methylpyridin-3-yl)isoxazol-4-yl)methoxy)pyridazine-3-carboxamide], the “Fold increase h-GABA-A α5β3γ2 oocyte” value under setting [1] amounted to 1.6.
Turning to `Cc1ccc(-c2noc(C)c2COc2ccc(C(=O)N[C@@H]3CC[C@@H](OCC(F)F)C3)nn2)cn1` [Example 191, N-((1R,3R)-3-(2,2-difluoroethoxy)cyclopentyl)-6-((5-methyl-3-(6-methylpyridin-3-yl)isoxazol-4-yl)methoxy)pyridazine-3-carboxamide], under setting [1], the “Fold increase h-GABA-A α5β3γ2 oocyte” value stood at 1.6.
Regarding `Cc1ncc2n1-c1ccc(Cl)cc1C(c1ccccc1F)=NC2` [Midazolam, reference compound], for the setting “positive control (PAM) at a maximally effective concentration”, the “potentiation of the GABA-induced current” value was roughly 150%. The Fold increase (positive control at a maximally effective concentration, 3-6 oocytes per 96-well plate) is recorded as roughly 2.5.
For the molecule `Cc1onc(-c2cccnc2)c1COc1ccc(C(=O)NC2CCOCC2)nn1` [RE-A, 6-((5-methyl-3-(3-pyridyl)isoxazol-4-yl)methoxy)-N-tetrahydropyran-4-yl-pyridazine-3-carboxamide, reference compound], under setting [3], the “Efficacy (GABA) %” value is −3%. Besides, the “Fold increase h-GABA-A α5β3γ2 oocyte” value under setting [4] was determined as 0.97.
As for `Cc1onc(-c2ccc(Cl)cn2)c1COc1ccc(C(=O)NC2CCOCC2)nn1` [RE-B, 6-((3-(5-chloro-2-pyridyl)-5-methyl-isoxazol-4-yl)methoxy)-N-tetrahydropyran-4-yl-pyridazine-3-carboxamide, reference compound], under setting [3], the “Efficacy (GABA) %” value is “+3%”.
In the case of `Cc1onc(-c2ccccn2)c1COc1ccc(C(=O)NC2CCOCC2)nn1` [RO-094, reference compound], the “Efficacy (GABA) %” value under setting [3] is recorded as −18%. Further, the “Fold increase h-GABA-A α5β3γ2 oocyte” value under setting [4] was 0.82.
